Test: Fluorometric analysis, excitation and emission spectra
Type: physicochemical
Conditions: FIG. 4
Method: For the synthesis of a nile blue-DTPA conjugate, 0.1 g of DTPA dianhydride (ccDPTA) was dissolved in 6 ml of dimethyl sulfoxide (DMSO) in a round bottom flask. Ninety mg of nile blue were dissolved in DMSO and 36 μL of triethyl amine were added, turning the solution purple. The nile blue solution was added drop wise to the solution of ccDTPA while stirring. The solution turned blue. Thirty-eight μL of […] (TEA) were added to the final mixture, turning the solution purple. After mixing, the mixture was heated to 60° C. and stirred for 2 hours. The reaction mixture was then loaded onto a silica gel column and eluted with acetone:ethylacetate. The fractions corresponding to the nile blue-DTPA conjugate were pooled and evaporated, yielding a magenta colored oil. The oil was rechromatographed on a second silica gel column using acetone as eluant. The nile blue-DTPA conjugated fractions were pooled and rotate-evaporated to give a magenta colored oil. […]
The only group of chelating agents known to produce highly soluble and stable lanthanide chelates are the polyamino polyacetic acid analogs. […] The simplest initial approach was to study the fluorescence characteristics of the chelate between Eu and other already commercially available polyaminopoly bis (2-aminoethyl ether) acetic acids. […]

**Q.** Which emission fluorescence does the source give for `CC[N+](CC)=c1ccc2nc3c(cc(N)c4ccccc43)oc-2c1` [nile blue] here?
**A.** 695 nm

**Q.** And the maximal excitation?
**A.** approximately 390 nm

Reference: patent publication US6440389B1, “Fluorescent agents for real-time measurement of organ function” (The General Hospital Corporation, priority 2000, dated 2002)
